According to paper PMC3156476 (ACS medicinal chemistry letters, 2011):

Experiments:
[1] = target: T1, hA1AR (Homo sapiens, UniProt P30542); settings: read-out: Affinity Ki, A1; CHO cells expressing hA1AR; ref [6], [7], and [12]; cited from earlier work
T1 sequence (P30542 1-326): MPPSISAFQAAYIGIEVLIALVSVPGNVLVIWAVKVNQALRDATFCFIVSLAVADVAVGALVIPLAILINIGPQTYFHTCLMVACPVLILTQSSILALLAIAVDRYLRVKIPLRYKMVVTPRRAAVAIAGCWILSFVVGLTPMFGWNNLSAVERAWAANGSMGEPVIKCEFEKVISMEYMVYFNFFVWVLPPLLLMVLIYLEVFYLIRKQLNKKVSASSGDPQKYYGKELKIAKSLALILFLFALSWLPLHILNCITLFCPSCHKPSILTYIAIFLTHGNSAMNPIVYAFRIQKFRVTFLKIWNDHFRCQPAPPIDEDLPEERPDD

[2] = target: T1, hA1AR; format: cell-based; settings: compared to standard full agonist CPA / NECA
[3] = target: T2, hA3AR (Homo sapiens, UniProt P0DMS8); settings: read-out: Affinity Ki, A3; CHO cells expressing hA3AR; ref [6], [7], and [12]; cited from earlier work
T2 sequence (P0DMS8 1-318): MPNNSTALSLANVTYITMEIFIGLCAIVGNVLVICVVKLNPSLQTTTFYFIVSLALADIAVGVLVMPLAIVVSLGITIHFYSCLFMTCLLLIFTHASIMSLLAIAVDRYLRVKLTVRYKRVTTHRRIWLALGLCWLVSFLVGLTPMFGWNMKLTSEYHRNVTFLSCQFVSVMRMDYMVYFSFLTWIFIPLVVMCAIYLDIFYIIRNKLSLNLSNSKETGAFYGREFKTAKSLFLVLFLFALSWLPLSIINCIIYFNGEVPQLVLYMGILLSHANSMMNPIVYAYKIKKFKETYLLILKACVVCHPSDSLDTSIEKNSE

SMILES | Ki [1] [nM] | Agonist character at A1AR in cyclic AMP assay [2] | Ki [3] [nM]
CNC(=O)[C@@]12C[C@@H]1[C@@H](n1cnc3c(NCc4cccc(Cl)c4)nc(Cl)nc31)[C@H](O)[C@@H]2O [Compound 1, (1′S,2′R,3′S,4′R,5′S)-4′-{2-chloro-6-[(3-chlorophenylmethyl)amino]purin-9-yl}-1-(methylaminocarbonyl)bicyclo[3.1.0]hexane-2,3-diol] | 260 ± 60 |  | 
O[C@@H]1[C@H](O)[C@@H]2C[C@@H]2[C@H]1n1cnc2c(NC(C3CC3)C3CC3)nc(Cl)nc21 [Compound 21] |  | full agonism | 
CNC(=O)[C@@]12C[C@@H]1[C@@H](n1cnc3c(NC4CCCC4)nc(Cl)nc31)[C@H](O)[C@@H]2O [Compound 2, (1′S,2′R,3′S,4′R,5′S)-4-(2-chloro-6-(cyclopentylamino)-9H-purin-9-yl)-2,3-dihydroxy-N-methylbicyclo[3.1.0]hexane-1-carboxamide] | 18.3 ± 6.3 |  | 13.1 ± 5.1
CCNC(=O)[C@H]1O[C@@H](n2cnc3c(N)ncnc32)[C@H](O)[C@@H]1O [NECA, 5′-N-ethylcarboxamidoadenosine] |  | full agonist | 
O[C@@H]1[C@H](O)[C@H]2C[C@@H]2[C@H]1n1cnc2c(NCc3cccc(I)c3)nc(Cl)nc21 [Compound 5, (1′S,2′R,3′S,4′R,5′S)-4′-[2-chloro-6-(3-iodobenzylamino)-purine]-2′,3′-O-dihydroxybicyclo-[3.1.0]hexane] |  |  | 1.44 ± 0.6
